Results reported in US20040086995A1, “Beta1, 4-N-Acetylgalactosaminyltransferases, nucleic acids and methods of use thereof” (priority 2002, published 2004).

B1: a-lactalbumin: modifier protein expressed in lactating mammary glands, associates with β4GalT I and switches its acceptor specificity (protein, UniProt P00709 20-142, looked up)
Alpha-lactalbumin: KQFTKCELSQLLKDIDGYGGIALPELICTMFHTSGYDTQAIVENNESTEYGLFQISNKLWCKSSQVPQSRNICDISCDKFLDDDITDDIMCAKKILDIKGIDYWLAHKALCTEKLEQWLCEKL

Legend:
SH-Ceβ4GalNAcT [1] = target: T1, SH-Ceβ4GalNAcT (Caenorhabditis elegans, UniProt Q9GUM2); test: β4GalNAcT assay, sugar nucleotide (donor) specificity; format: biochemical, C. elegans; conditions: for Relative activity (%): acceptor GlcNAcβ-S-pNP 1 mM, donor 0.5 mM, enzyme on HPC4-beads, 100% = UDP-GalNAc
T1 construct: the catalytic domain of the Ceβ4GalNAcT (beginning at K34, the first amino acid after the transmembrane domain); signal peptide (from vector pcDNA3.1(+)-TH) (N); made in house; host or cells: CHO-Lec8 (and CHO-Lec2) cells, stably transfected; enzyme captured from the culture medium on HPC4-UltraLink beads
Description: (§1) Purification of SH-C.E.β4GalNAcT—Medium containing SH-Ceβ4GalNAcT was centrifuged at 1,500×g for 5 min to remove cellular debris, and then incubated with HPC4-UltraLink beads (5 mg HPC4 antibody per ml of beads; 0.1 ml of beads per ml of medium) for one hour at room temperature on a rotating platform. The beads were collected by centrifugation at 600×g for 3 min, and washed three times with 10 ml of 100 mM sodium cacodylate pH 7.0, 2 mM CaCl2. The beads were then resuspended in the same buffer with the addition of 20 mM MnCl2, and used as the enzyme source. For Western blot analysis, the bound material was released by incubating the beads in a buffer of 50 mM sodium cacodylate pH 7.0, 20 mM EDTA for 10 min at room temperature, then collecting the supernatant.
(§2) β4GalNAcT assays—Standard assays were performed essentially as described previously (40) in a […] reaction mixture containing […] sodium cacodylate pH 7.2, 12.5 nmol UDP-[^3H]GalNAc (2.5 Ci/mol), […] MnCl2, […] ATP, […] Triton X-100, […] beads and acceptor substrate, containing 25 nmol of terminal GlcNAc at the non-reducing end unless otherwise indicated. Control assays lacking the acceptor substrate were carried out to correct for incorporation into endogenous acceptors, and all assays were carried out in duplicate. After incubation at 37° C. for 180 min the reaction was stopped. When oligosaccharides or glycopeptides were the acceptor, the labeled product was separated from unincorporated label by chromatography on a 1-ml column of Dowex 1-X8 (Cl^−-form) according to Easton et al., (44). When oligosaccharide acceptors with hydrophobic aglycon (pNP) were used as the acceptor, the product was isolated using Sep-pak C-18 cartridges (Waters) as described (45). The isolated products were assayed for incorporation of radioactivity by liquid scintillation.

SH-Ceβ4GalNAcT [2] = target: T1, SH-Ceβ4GalNAcT; test: β4GalNAcT assay, effect of α-lactalbumin on acceptor use; format: biochemical, C. elegans; conditions: for Relative activity (%): UDPGalNAc 0.5 mM, GlcNAc 1 mM or Glc 30 mM
Description: as §1, §2

SH-Ceβ4GalNAcT [3] = target: T1, SH-Ceβ4GalNAcT; test: β4GalNAcT assay, acceptor specificity; format: biochemical, C. elegans
Description: as §1
β4GalNAcT assays—Standard assays were performed essentially as described previously (40) in a […] reaction mixture containing […] sodium cacodylate pH 7.2, 12.5 nmol UDP-[^3H]GalNAc (2.5 Ci/mol), […] MnCl2, […] ATP, […] Triton X-100, […] beads and acceptor substrate, containing 25 nmol of terminal GlcNAc at the non-reducing end unless otherwise indicated. Control assays lacking the acceptor substrate were carried out to correct for incorporation into endogenous acceptors, and all assays were carried out in duplicate. […] The isolated products were assayed for incorporation of radioactivity by liquid scintillation.

[4] = target: SH-Ceβ4GalNAcT (soluble, HPC4-epitope tagged form of C. elegans UDPGalNAc:GlcNAcβ-R β1,4-N-acetylgalactosaminyltransferase, encoded by Y73E7A.7) (C. elegans); test: cell-based or functional assay
Chain of SH-Ceβ4GalNAcT (soluble, HPC4-epitope tagged form of C. elegans UDPGalNAc:GlcNAcβ-R β1,4-N-acetylgalactosaminyltransferase, encoded by Y73E7A.7) (C. elegans) (Q9GUM2 34-383): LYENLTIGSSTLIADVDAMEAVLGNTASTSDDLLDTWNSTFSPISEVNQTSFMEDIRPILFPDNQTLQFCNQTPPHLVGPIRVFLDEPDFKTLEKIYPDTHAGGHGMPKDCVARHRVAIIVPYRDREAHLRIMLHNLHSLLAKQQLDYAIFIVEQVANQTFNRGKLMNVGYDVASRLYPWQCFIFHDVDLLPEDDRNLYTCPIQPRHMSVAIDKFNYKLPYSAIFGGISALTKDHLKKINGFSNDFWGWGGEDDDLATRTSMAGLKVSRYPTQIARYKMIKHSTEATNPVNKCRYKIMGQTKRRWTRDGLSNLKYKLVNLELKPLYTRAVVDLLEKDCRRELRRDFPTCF

T1 sequence (Q9GUM2 30-383 limits assumed): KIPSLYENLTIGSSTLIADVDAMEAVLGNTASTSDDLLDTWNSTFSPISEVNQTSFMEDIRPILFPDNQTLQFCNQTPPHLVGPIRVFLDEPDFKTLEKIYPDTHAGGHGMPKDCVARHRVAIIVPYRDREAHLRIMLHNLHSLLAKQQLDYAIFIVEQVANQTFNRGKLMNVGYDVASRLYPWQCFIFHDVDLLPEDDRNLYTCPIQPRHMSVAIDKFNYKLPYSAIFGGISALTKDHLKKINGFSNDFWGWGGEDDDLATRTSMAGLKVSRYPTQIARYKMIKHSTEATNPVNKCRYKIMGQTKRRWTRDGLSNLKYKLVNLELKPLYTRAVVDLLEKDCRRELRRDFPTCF

Row | Molecule | utilization as nucleotide-sugar donor (SH-Ceβ4GalNAcT [1]) | Relative activity (%) (SH-Ceβ4GalNAcT [1]) | Relative activity (%) (SH-Ceβ4GalNAcT [2]; with a-Lactalbumin 5 mg/ml) | Relative activity (%) (SH-Ceβ4GalNAcT [2]; without a-Lactalbumin) | other results
1 | CC(=O)N[C@H]1[C@@H](OP(=O)(O)OP(=O)(O)OC[C@H]2O[C@@H](n3ccc(=O)[nH]c3=O)[C@H](O)[C@@H]2O)O[C@H](CO)[C@H](O)[C@@H]1O [UDP-GalNAc] | efficiently utilized | 100% | – | – | –
2 | CC(=O)N[C@H]1[C@@H](OP(=O)(O)OP(=O)(O)OC[C@H]2O[C@@H](n3ccc(=O)[nH]c3=O)[C@H](O)[C@@H]2O)O[C@H](CO)[C@@H](O)[C@@H]1O [UDP-GlcNAc] | did not significantly utilize | 0.7% | – | – | –
3 | CC(=O)N[C@@H]1[C@@H](O)[C@H](O)[C@@H](CO)O[C@H]1O [Acceptor 9, GlcNAc] | – | – | 40% | 100% | utilization as acceptor substrate (SH-Ceβ4GalNAcT [3]): efficiently utilized
4 | α-lactalbumin | – | – | – | – | Relative activity (%) of SH-Ceβ4GalNAcT with Glc (30 mM) as acceptor in the presence of a-lactalbumin (5 mg/ml); 3 without it [4]: 6%; Relative activity (%) of SH-Ceβ4GalNAcT with GlcNAc (1 mM) as acceptor in the presence of a-lactalbumin (5 mg/ml); 100 without it [4]: 40%
5 | OC[C@H]1OC(O)[C@H](O)[C@@H](O)[C@@H]1O (stereo partly drawn) [Glc] | – | – | 6% | 3% | –
6 | B1 | – | – | – | – | effect of α-lactalbumin on acceptor specificity (SH-Ceβ4GalNAcT [2]): did not induce SH-Ceβ4GalNAcT to utilize Glc as an acceptor instead of GlcNAc
